Test: xn = mol fraction of the nth substance listed
Settings: 101.3 kPa

CC[n+]1ccn(C)c1.O=S(=O)([N-]S(=O)(=O)C(F)(F)F)C(F)(F)F + CC1COC(=O)O1
Settings	viscosity [mPa·s]
288.15 K, x1 = 0.1	4.724
288.15 K, x1 = 0.2127	7.25
288.15 K, x1 = 0.3007	9.74
288.15 K, x1 = 0.4227	14.35
288.15 K, x1 = 0.5146	18.39
288.15 K, x1 = 0.6015	23.02
288.15 K, x1 = 0.658	25.85
288.15 K, x1 = 0.7004	28.44
288.15 K, x1 = 0.7601	31.76
288.15 K, x1 = 0.8098	35.48
288.15 K, x1 = 0.8657	38.62
288.15 K, x1 = 0.8868	40.67
288.15 K, x1 = 0.9533	44.93
288.15 K, x1 = 1	47.8
293.15 K, x1 = 0.1	4.184
293.15 K, x1 = 0.2127	6.34
293.15 K, x1 = 0.4227	11.98
293.15 K, x1 = 0.5146	15.03
293.15 K, x1 = 0.6015	19.33
293.15 K, x1 = 0.658	21.63
293.15 K, x1 = 0.7004	23.75
293.15 K, x1 = 0.7601	26.4
293.15 K, x1 = 0.7977	28.37
293.15 K, x1 = 0.8098	29.37
293.15 K, x1 = 0.8657	31.88
293.15 K, x1 = 0.8868	33.56
293.15 K, x1 = 0.9533	36.88
298.15 K, x1 = 0.1	3.737
298.15 K, x1 = 0.3007	7.34
298.15 K, x1 = 0.4227	10.32
298.15 K, x1 = 0.5146	12.87
298.15 K, x1 = 0.6015	16.3
298.15 K, x1 = 0.658	18.51
298.15 K, x1 = 0.7601	22.25
298.15 K, x1 = 0.7977	23.88
298.15 K, x1 = 0.8098	24.66
298.15 K, x1 = 0.8657	26.69
298.15 K, x1 = 0.8868	28.06
298.15 K, x1 = 0.9533	30.76
298.15 K, x1 = 1	32.42
303.15 K, x1 = 0.2127	4.96
303.15 K, x1 = 0.3007	6.46
303.15 K, x1 = 0.5146	11.13
303.15 K, x1 = 0.6015	14.61
303.15 K, x1 = 0.658	16.21
303.15 K, x1 = 0.7004	17.58
303.15 K, x1 = 0.7977	20.34
303.15 K, x1 = 0.8098	20.96
303.15 K, x1 = 0.8657	22.62
303.15 K, x1 = 0.8868	23.76
303.15 K, x1 = 0.9533	25.94
303.15 K, x1 = 1	27.26
308.15 K, x1 = 0.1	3.037
308.15 K, x1 = 0.2127	4.435
308.15 K, x1 = 0.3007	5.73
308.15 K, x1 = 0.5146	9.72
308.15 K, x1 = 0.658	14.09
308.15 K, x1 = 0.7004	15.35
308.15 K, x1 = 0.7977	17.84
308.15 K, x1 = 0.8098	18.26
308.15 K, x1 = 0.8657	19.38
308.15 K, x1 = 0.8868	20.35
308.15 K, x1 = 0.9533	22.14
313.15 K, x1 = 0.1	2.762
313.15 K, x1 = 0.2127	3.99
313.15 K, x1 = 0.3007	5.13
313.15 K, x1 = 0.4227	6.99
313.15 K, x1 = 0.5146	8.55
313.15 K, x1 = 0.6015	10.89
313.15 K, x1 = 0.658	12.21
313.15 K, x1 = 0.7004	13.32
313.15 K, x1 = 0.7977	15.7
313.15 K, x1 = 0.8657	17.2
313.15 K, x1 = 0.8868	17.89
313.15 K, x1 = 0.9533	19.08
318.15 K, x1 = 0.1	2.524
318.15 K, x1 = 0.2127	3.613
318.15 K, x1 = 0.4227	6.24
318.15 K, x1 = 0.5146	7.6
318.15 K, x1 = 0.658	10.64
318.15 K, x1 = 0.7601	12.82
318.15 K, x1 = 0.7977	13.74
318.15 K, x1 = 0.8098	14.09
318.15 K, x1 = 0.8657	15.18
318.15 K, x1 = 0.8868	15.85
318.15 K, x1 = 1	17.37
323.15 K, x1 = 0.1	2.318
323.15 K, x1 = 0.2127	3.292
323.15 K, x1 = 0.3007	4.173
323.15 K, x1 = 0.4227	5.6
323.15 K, x1 = 0.5146	6.79
323.15 K, x1 = 0.658	9.31
323.15 K, x1 = 0.7004	10.12
323.15 K, x1 = 0.7601	11.2
323.15 K, x1 = 0.7977	11.96
323.15 K, x1 = 0.8098	12.34
323.15 K, x1 = 0.8657	13.32
323.15 K, x1 = 0.8868	13.92
323.15 K, x1 = 0.9533	15.09
323.15 K, x1 = 1	15.34
328.15 K, x1 = 0.1	2.138
328.15 K, x1 = 0.3007	3.8
328.15 K, x1 = 0.6015	7.37
328.15 K, x1 = 0.658	8.23
328.15 K, x1 = 0.7004	8.93
328.15 K, x1 = 0.8098	10.81
328.15 K, x1 = 0.8657	11.71
328.15 K, x1 = 0.8868	12.21
328.15 K, x1 = 0.9533	13.31
328.15 K, x1 = 1	13.63
333.15 K, x1 = 0.2127	2.771
333.15 K, x1 = 0.4227	4.607
333.15 K, x1 = 0.5146	5.53
333.15 K, x1 = 0.6015	6.52
333.15 K, x1 = 0.7601	8.7
333.15 K, x1 = 0.7977	9.28
333.15 K, x1 = 0.8098	9.55
333.15 K, x1 = 0.8657	10.33
333.15 K, x1 = 0.8868	10.75
333.15 K, x1 = 0.9533	11.76
333.15 K, x1 = 1	12.17
338.15 K, x1 = 0.2127	2.558
338.15 K, x1 = 0.3007	3.195
338.15 K, x1 = 0.4227	4.205
338.15 K, x1 = 0.5146	5.03
338.15 K, x1 = 0.6015	5.88
338.15 K, x1 = 0.658	6.52
338.15 K, x1 = 0.7004	7.07
338.15 K, x1 = 0.7601	7.75
338.15 K, x1 = 0.7977	8.26
338.15 K, x1 = 0.8098	8.49
338.15 K, x1 = 0.8657	9.18
338.15 K, x1 = 0.8868	9.55
338.15 K, x1 = 0.9533	10.42
338.15 K, x1 = 1	10.88
343.15 K, x1 = 0.1	1.712
343.15 K, x1 = 0.2127	2.37
343.15 K, x1 = 0.3007	2.947
343.15 K, x1 = 0.4227	3.852
343.15 K, x1 = 0.6015	5.33
343.15 K, x1 = 0.658	5.88
343.15 K, x1 = 0.7004	6.33
343.15 K, x1 = 0.8657	8.2
343.15 K, x1 = 0.8868	8.52
343.15 K, x1 = 0.9533	9.3
343.15 K, x1 = 1	9.76
348.15 K, x1 = 0.3007	2.729
348.15 K, x1 = 0.4227	3.549
348.15 K, x1 = 0.5146	4.215
348.15 K, x1 = 0.6015	4.9
348.15 K, x1 = 0.7004	5.77
348.15 K, x1 = 0.7601	6.34
348.15 K, x1 = 0.7977	6.71
348.15 K, x1 = 0.8098	6.83
348.15 K, x1 = 0.8657	7.35
348.15 K, x1 = 0.8868	7.64
348.15 K, x1 = 0.9533	8.33
348.15 K, x1 = 1	8.78

CC1COC(=O)O1 (stereo not drawn) + FC(S(=O)(=O)[N-]S(=O)(=O)C(F)(F)F)(F)F.C(CCC)N1C(=[N+](C=C1)C)C
x2 = 0
Settings	viscosity [mPa·s]
298.15 K	2.476
303.15 K	2.246
308.15 K	2.049
313.15 K	1.879
318.15 K	1.73
323.15 K	1.6
328.15 K	1.486
333.15 K	1.385
338.15 K	1.294
348.15 K	1.14

Source: a compilation of properties of binary mixtures (doi:10.1016/j.molliq.2020.114573)
